Laboratory results taken from the NIST ThermoML archive (doi:10.1016/j.jct.2012.03.003).

Test: xn = mol fraction of the nth substance listed
Conditions: Liquid, Vibrating tube method

COc1cc2c(cc1O)CC1c3c(cc(O)c(OC)c3-2)CCN1C (stereo not given) [boldine] + CCCO
Conditions	mass density [kg/m3]
313.09 K, 1000 kPa, x1 = 0.0142	812.51
313.09 K, 2000 kPa, x1 = 0.0142	813.26
313.09 K, 3000 kPa, x1 = 0.0142	814.02
313.09 K, 4000 kPa, x1 = 0.0142	814.8
313.09 K, 5000 kPa, x1 = 0.0142	815.58
313.09 K, 6000 kPa, x1 = 0.0142	816.36
313.09 K, 7000 kPa, x1 = 0.0142	817.15
313.09 K, 8000 kPa, x1 = 0.0142	817.95
313.09 K, 9000 kPa, x1 = 0.0142	818.75
313.09 K, 10000 kPa, x1 = 0.0142	819.54
313.09 K, 11000 kPa, x1 = 0.0142	820.32
313.09 K, 12000 kPa, x1 = 0.0142	821.12
313.09 K, 13000 kPa, x1 = 0.0142	821.89
313.09 K, 14000 kPa, x1 = 0.0142	822.65
313.09 K, 15000 kPa, x1 = 0.0142	823.42
313.09 K, 16000 kPa, x1 = 0.0142	824.16
313.09 K, 17000 kPa, x1 = 0.0142	824.91
313.09 K, 18000 kPa, x1 = 0.0142	825.63
313.09 K, 19000 kPa, x1 = 0.0142	826.34
313.09 K, 20000 kPa, x1 = 0.0142	827.03
313.14 K, 1000 kPa, x1 = 0.0046	797.2
313.14 K, 2000 kPa, x1 = 0.0046	797.97
313.14 K, 3000 kPa, x1 = 0.0046	798.75
313.14 K, 4000 kPa, x1 = 0.0046	799.53
313.14 K, 5000 kPa, x1 = 0.0046	800.32
313.14 K, 6000 kPa, x1 = 0.0046	801.13
313.14 K, 7000 kPa, x1 = 0.0046	801.93
313.14 K, 8000 kPa, x1 = 0.0046	802.74
313.14 K, 9000 kPa, x1 = 0.0046	803.55
313.14 K, 10000 kPa, x1 = 0.0046	804.36
313.14 K, 11000 kPa, x1 = 0.0046	805.17
313.14 K, 12000 kPa, x1 = 0.0046	805.97
313.14 K, 13000 kPa, x1 = 0.0046	806.77
313.14 K, 14000 kPa, x1 = 0.0046	807.55
313.14 K, 15000 kPa, x1 = 0.0046	808.32
313.14 K, 16000 kPa, x1 = 0.0046	809.08
313.14 K, 17000 kPa, x1 = 0.0046	809.85
313.14 K, 18000 kPa, x1 = 0.0046	810.58
313.14 K, 19000 kPa, x1 = 0.0046	811.3
313.14 K, 20000 kPa, x1 = 0.0046	812.01
313.15 K, 1000 kPa, x1 = 0.0018	790.99
313.15 K, 1000 kPa, x1 = 0.0077	801.14
313.15 K, 1000 kPa, x1 = 0.0112	807.94
313.15 K, 2000 kPa, x1 = 0.0018	791.76
313.15 K, 2000 kPa, x1 = 0.0077	801.89
313.15 K, 2000 kPa, x1 = 0.0112	808.71
313.15 K, 3000 kPa, x1 = 0.0018	792.55
313.15 K, 3000 kPa, x1 = 0.0077	802.66
313.15 K, 3000 kPa, x1 = 0.0112	809.47
313.15 K, 4000 kPa, x1 = 0.0018	793.33
313.15 K, 4000 kPa, x1 = 0.0077	803.44
313.15 K, 4000 kPa, x1 = 0.0112	810.25
313.15 K, 5000 kPa, x1 = 0.0018	794.13
313.15 K, 5000 kPa, x1 = 0.0077	804.23
313.15 K, 5000 kPa, x1 = 0.0112	811.06
313.15 K, 6000 kPa, x1 = 0.0018	794.94
313.15 K, 6000 kPa, x1 = 0.0077	805.03
313.15 K, 6000 kPa, x1 = 0.0112	811.83
313.15 K, 7000 kPa, x1 = 0.0018	795.75
313.15 K, 7000 kPa, x1 = 0.0077	805.83
313.15 K, 7000 kPa, x1 = 0.0112	812.63
313.15 K, 8000 kPa, x1 = 0.0018	796.57
313.15 K, 8000 kPa, x1 = 0.0077	806.63
313.15 K, 8000 kPa, x1 = 0.0112	813.42
313.15 K, 9000 kPa, x1 = 0.0018	797.38
313.15 K, 9000 kPa, x1 = 0.0077	807.44
313.15 K, 9000 kPa, x1 = 0.0112	814.2
313.15 K, 10000 kPa, x1 = 0.0018	798.19
313.15 K, 10000 kPa, x1 = 0.0077	808.25
313.15 K, 10000 kPa, x1 = 0.0112	815
313.15 K, 11000 kPa, x1 = 0.0018	799.01
313.15 K, 11000 kPa, x1 = 0.0077	809.05
313.15 K, 11000 kPa, x1 = 0.0112	815.81
313.15 K, 12000 kPa, x1 = 0.0018	799.83
313.15 K, 12000 kPa, x1 = 0.0077	809.85
313.15 K, 12000 kPa, x1 = 0.0112	816.58
313.15 K, 13000 kPa, x1 = 0.0018	800.62
313.15 K, 13000 kPa, x1 = 0.0077	810.64
313.15 K, 13000 kPa, x1 = 0.0112	817.36
313.15 K, 14000 kPa, x1 = 0.0018	801.41
313.15 K, 14000 kPa, x1 = 0.0077	811.41
313.15 K, 14000 kPa, x1 = 0.0112	818.14
313.15 K, 15000 kPa, x1 = 0.0018	802.19
313.15 K, 15000 kPa, x1 = 0.0077	812.18
313.15 K, 15000 kPa, x1 = 0.0112	818.89
313.15 K, 16000 kPa, x1 = 0.0018	802.95
313.15 K, 16000 kPa, x1 = 0.0077	812.94
313.15 K, 16000 kPa, x1 = 0.0112	819.65
313.15 K, 17000 kPa, x1 = 0.0018	803.72
313.15 K, 17000 kPa, x1 = 0.0077	813.69
313.15 K, 17000 kPa, x1 = 0.0112	820.39
313.15 K, 18000 kPa, x1 = 0.0018	804.46
313.15 K, 18000 kPa, x1 = 0.0077	814.42
313.15 K, 18000 kPa, x1 = 0.0112	821.12
313.15 K, 19000 kPa, x1 = 0.0018	805.19
313.15 K, 19000 kPa, x1 = 0.0077	815.14
313.15 K, 19000 kPa, x1 = 0.0112	821.85
313.15 K, 20000 kPa, x1 = 0.0018	805.9
313.15 K, 20000 kPa, x1 = 0.0077	815.85
313.15 K, 20000 kPa, x1 = 0.0112	822.53
323.1 K, 1000 kPa, x1 = 0.0018	782.67
323.1 K, 2000 kPa, x1 = 0.0018	783.52
323.1 K, 3000 kPa, x1 = 0.0018	784.36
323.1 K, 4000 kPa, x1 = 0.0018	785.2
323.1 K, 5000 kPa, x1 = 0.0018	786.06
323.1 K, 6000 kPa, x1 = 0.0018	786.91
323.1 K, 7000 kPa, x1 = 0.0018	787.78
323.1 K, 8000 kPa, x1 = 0.0018	788.64
323.1 K, 9000 kPa, x1 = 0.0018	789.49
323.1 K, 10000 kPa, x1 = 0.0018	790.35
323.1 K, 11000 kPa, x1 = 0.0018	791.2
323.1 K, 12000 kPa, x1 = 0.0018	792.05
323.1 K, 13000 kPa, x1 = 0.0018	792.88
323.1 K, 14000 kPa, x1 = 0.0018	793.69
323.1 K, 15000 kPa, x1 = 0.0018	794.51
323.1 K, 16000 kPa, x1 = 0.0018	795.32
323.1 K, 17000 kPa, x1 = 0.0018	796.1
323.1 K, 18000 kPa, x1 = 0.0018	796.89
323.1 K, 19000 kPa, x1 = 0.0018	797.65
323.1 K, 20000 kPa, x1 = 0.0018	798.39
323.11 K, 1000 kPa, x1 = 0.0112	799.52
323.11 K, 1000 kPa, x1 = 0.0142	804.17
323.11 K, 2000 kPa, x1 = 0.0112	800.32
323.11 K, 2000 kPa, x1 = 0.0142	804.99
323.11 K, 3000 kPa, x1 = 0.0112	801.16
323.11 K, 3000 kPa, x1 = 0.0142	805.81
323.11 K, 4000 kPa, x1 = 0.0112	801.99
323.11 K, 4000 kPa, x1 = 0.0142	806.63
323.11 K, 5000 kPa, x1 = 0.0112	802.82
323.11 K, 5000 kPa, x1 = 0.0142	807.51
323.11 K, 6000 kPa, x1 = 0.0112	803.66
323.11 K, 6000 kPa, x1 = 0.0142	808.3
323.11 K, 7000 kPa, x1 = 0.0112	804.52
323.11 K, 7000 kPa, x1 = 0.0142	809.14
323.11 K, 8000 kPa, x1 = 0.0112	805.34
323.11 K, 8000 kPa, x1 = 0.0142	809.97
323.11 K, 9000 kPa, x1 = 0.0112	806.15
323.11 K, 9000 kPa, x1 = 0.0142	810.81
323.11 K, 10000 kPa, x1 = 0.0112	807.01
323.11 K, 10000 kPa, x1 = 0.0142	811.64
323.11 K, 11000 kPa, x1 = 0.0112	807.85
323.11 K, 11000 kPa, x1 = 0.0142	812.47
323.11 K, 12000 kPa, x1 = 0.0112	808.67
323.11 K, 12000 kPa, x1 = 0.0142	813.28
323.11 K, 13000 kPa, x1 = 0.0112	809.47
323.11 K, 13000 kPa, x1 = 0.0142	814.1
323.11 K, 14000 kPa, x1 = 0.0112	810.29
323.11 K, 14000 kPa, x1 = 0.0142	814.89
323.11 K, 15000 kPa, x1 = 0.0112	811.07
323.11 K, 15000 kPa, x1 = 0.0142	815.69
